Data reported in paper PMC8151276, “An Integrated Approach toward NanoBRET Tracers for Analysis of GPCR Ligand Engagement” (Molecules, 2021).

Key:
OPRM1 = molecular target: T1, OPRM1 (Homo sapiens, UniProt P35372); assay: NanoBRET screen HiBiT-OPRM1 in HEK293; assay type: binding
T1 construct: purchased Promega (in-house HiBiT-GPCR construct library, NanoBRET)
Description: (§1) Each tracer candidate was screened across the entire library of HiBiT-GPCR constructs using NanoBRET as the detection modality. As depicted in Figure 4A, the specificity of interactions was evaluated through decrease in BRET due to competitive displacement of a bound tracer by excess parental compound. Each tracer was analyzed for binding to each HiBiT-GPCR fusion in the absence and in the presence of competing parental compound. Briefly, HEK293 cells were transfected with HiBiT-GPCR constructs diluted into promoterless DNA to reduce expression and maximize translocation to the cell surface. Each tracer candidate was then screened at concentrations of 1 μM and 0.1 μM across cells expressing these fusions. Cells were treated for 1.5 h with tracer either alone or in the presence of 20 μM competing parental compound (i.e., control). BRET was measured upon addition of purified LgBiT and subsequent complementation with HiBiT genetically fused to a GPCR. The specificity of interactions was assessed through a decrease in BRET signal due to competitive displacement of the bound tracer. To further gauge the robustness of these interactions, the fold response over the control (i.e., BRETtracer/BRETcontrol) was calculated. We chose a 1.5-fold response, which translates to ≥7-fold signal over noise as the minimal threshold required to score an interaction as positive.
(§2) HiBiT-GPCR DNA constructs were diluted in 10 mM Tris pH 8 to a final concentration of 0.01 μg/μL, arrayed in 96-well plates and stored at −20 °C. For transfection, HEK293 cells were suspended in Opti-MEM (without phenol red) supplemented with 2% fetal bovine serum (Seradigm) and 100 units/mL penicillin–streptomycin (Gibco) at a final concentration of 220,000 cells/mL and dispensed into white 96-well plates at 90 μL/well. Subsequent transfections and screens were carried using an Agilent Bravo Automated Liquid Handling Platform. First, the 96-well HiBiT DNA arrays were diluted 25-fold in Opti-MEM (without serum or phenol red) to a final concentration of 0.0004 μg/μL and 20 μL of the diluted DNAs were transferred into new 96-well plates. Next, promoterless carrier DNA (1 μg/μL) was diluted 25-fold (0.04 μg/μL) and then dispensed into the diluted arrays at 20 μL/well. Following brief mixing, Viafect transfection reagent (Promega) diluted 16-fold into Opti-MEM was dispensed into the plates at 40 μL/well. After mixing by pipetting, plates were incubated for 10 min on the pipetting station deck. The DNA-transfection reagent complexes were then added to plates containing cells. To facilitate the screen, 10 μL of DNA-transfection reagent complexes were added in duplicates to the top 4 and bottom 4 rows, resulting in two identical 48-well arrays per plate. Plates with transfected cells were incubated for 18–20 h at 37 °C/5% CO2. A screen of each tracer across the entire library using two different concentrations requires duplicate plates of transfected cells. Depending on the number of tracers being screened, transfections can be scaled up using the same ratios. The next day, for each tracer, four 20× screening solutions in tracer dilution buffer (Promega) were prepared: two duplicates at final concentration of 20 μM and two duplicates at a final concentration of 2 μM. […] The four resulting solutions were diluted 4-fold in Opti-MEM without serum or phenol red to generate 5× solutions (5 µM and 0.5 µM tracer +/− 100 μM competing compound). To screen the library, a BioTek MultiFlo FX liquid dispenser was used to dispense 22.5 µL of tracer solution to the top 4 rows and 22.5 µL tracer + competing compound solution to the 4 bottom rows. Plates were briefly mixed on an orbital shaker and incubated for 1.5 h at room temperature. […] Plates were briefly mixed on an orbital shaker and incubated for 15 min to allow complementation.

TACR1 = molecular target: T2, TACR1 (Homo sapiens, UniProt P25103); assay: NanoBRET screen HiBiT-TACR1 in HEK293; assay type: binding
T2 construct: purchased Promega (in-house HiBiT-GPCR construct library, NanoBRET)
T2 sequence (P25103 whole entry): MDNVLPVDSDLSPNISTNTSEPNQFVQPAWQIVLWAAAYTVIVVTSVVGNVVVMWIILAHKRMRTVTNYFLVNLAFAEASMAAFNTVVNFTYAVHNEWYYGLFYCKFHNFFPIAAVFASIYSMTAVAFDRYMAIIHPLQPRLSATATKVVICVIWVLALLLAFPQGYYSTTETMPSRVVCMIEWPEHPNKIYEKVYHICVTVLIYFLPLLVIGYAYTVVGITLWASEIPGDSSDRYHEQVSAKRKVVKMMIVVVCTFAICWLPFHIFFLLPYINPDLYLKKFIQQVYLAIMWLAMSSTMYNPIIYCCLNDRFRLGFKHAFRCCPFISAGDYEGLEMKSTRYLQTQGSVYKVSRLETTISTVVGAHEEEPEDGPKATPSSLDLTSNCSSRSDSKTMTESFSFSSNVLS
Description: as §1, §2

[1] = tracer at 0.1μM, listed as amitriptyline-b-2-NB590
[2] = tracer at 1μM, listed as amitriptyline-b-2-NB590

T1 sequence (P35372 whole entry): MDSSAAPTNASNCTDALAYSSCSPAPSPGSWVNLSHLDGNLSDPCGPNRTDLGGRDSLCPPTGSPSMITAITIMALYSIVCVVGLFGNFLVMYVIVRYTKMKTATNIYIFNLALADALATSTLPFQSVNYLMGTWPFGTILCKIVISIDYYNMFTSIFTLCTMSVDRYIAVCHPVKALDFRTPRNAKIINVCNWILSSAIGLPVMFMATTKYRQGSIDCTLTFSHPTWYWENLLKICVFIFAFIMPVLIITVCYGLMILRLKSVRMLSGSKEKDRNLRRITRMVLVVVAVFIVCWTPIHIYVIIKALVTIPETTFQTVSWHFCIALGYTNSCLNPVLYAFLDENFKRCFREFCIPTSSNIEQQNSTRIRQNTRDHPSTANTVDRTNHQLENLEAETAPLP

Row | Compound | NanoBRET Fold Response (OPRM1; OPRM1, tracer 0.1μM) | NanoBRET Fold Response (OPRM1; OPRM1, tracer 1μM) | NanoBRET Fold Response (TACR1; TACR1, tracer 0.1μM) | NanoBRET Fold Response (TACR1; TACR1, tracer 1μM) | further results
1 | CCOC(=O)c1cc(C#N)c(N2CCC(C(=O)NS(=O)(=O)Cc3ccccc3/C=C/C(=O)NCCNC(=O)CCc3ccc4n3[B-](F)(F)[N+]3=C(c5ccc[nH]5)C=CC3=C4)CC2)nc1C [AZD1283-1-NB590] |  |  |  |  | NanoBRET Fold Response (OPRM1; OPRM1, 0.1μM): 1.07; NanoBRET Fold Response (OPRM1; OPRM1, 1μM): 0.95; NanoBRET Fold Response (TACR1; TACR1, 0.1μM): 1.06; NanoBRET Fold Response (TACR1; TACR1, 1μM): 1.09
2 | N#CN/C(=N\CCNC(=O)c1ccc(N)cc1)NCCCOc1cccc(CN2CCCCC2)c1 [Aminopotentidine (unmodified)] |  |  |  |  | NanoBRET Fold Response (OPRM1; OPRM1, other tracers/Aminopotentidine (unmodified), 0.1μM): 1.22; NanoBRET Fold Response (OPRM1; OPRM1, other tracers/Aminopotentidine (unmodified), 1μM): 0.99
3 | N#CN=C(NCCCOc1cccc(CN2CCCCC2)c1)NCCNC(=O)CCOCCOCCOCCOCCNC(=O)CCc1ccc2n1[B-](F)(F)[N+]1=C(c3ccc[nH]3)C=CC1=C2 [Aminopotentidine-2-NB590] | 1.02 | 1.01 | 1.01 | 1.02 | 
4 | CN(C)CCC=C1c2ccccc2CCc2ccc(C(=O)NCCNC(=O)CCOCCOCCOCCOCCNC(=O)CCc3ccc4n3[B-](F)(F)[N+]3=C(c5ccc[nH]5)C=CC3=C4)cc21 [Amitriptyline-a-2-NB590] |  |  |  |  | NanoBRET Fold Response (OPRM1; tracer at 0.1μM): 0.95; NanoBRET Fold Response (OPRM1; tracer at 1μM): 1.10; NanoBRET Fold Response (TACR1; tracer at 0.1μM): 1.17; NanoBRET Fold Response (TACR1; tracer at 1μM): 1.18
5 | CN(C)CCC=C1c2ccccc2CCc2ccc(C(=O)NCCNC(=O)CCOCCOCCOCCOCCNC(=O)CCc3ccc4n3[B-](F)(F)[N+]3=C(c5ccc[nH]5)C=CC3=C4)cc21 [Amitriptyline-b-2-NB590] |  |  |  |  | NanoBRET Fold Response (OPRM1; [1]): 0.87; NanoBRET Fold Response (OPRM1; [2]): 0.87; NanoBRET Fold Response (TACR1; [1]): 1.45; NanoBRET Fold Response (TACR1; [2]): 1.07
6 | CN(CCC=C1c2ccccc2CCc2ccccc21)C(=O)CCOCCOCCOCCOCCNC(=O)CCc1ccc2n1[B-](F)(F)[N+]1=C(c3ccc[nH]3)C=CC1=C2 [Amitriptyline-e-2-NB590] |  |  |  |  | NanoBRET Fold Response (OPRM1; tracer at 1μM): 1.04
7 | COc1ccc2c(n1)c(CCNC(C)=O)cn2CCNC(=O)CCc1ccc2n1[B-](F)(F)[N+]1=C(c3ccc[nH]3)C=CC1=C2 [Azamelatonin-1-NB590] |  |  |  |  | NanoBRET Fold Response (OPRM1; 0.1μM tracer): 1.22; NanoBRET Fold Response (OPRM1; 1μM tracer): 1.22; NanoBRET Fold Response (TACR1; 0.1μM tracer): 0.98; NanoBRET Fold Response (TACR1; 1μM tracer): 0.89
8 | COc1ccc2[nH]c(-c3ccc(CNC(=O)CCOCCOCCOCCOCCNC(=O)CCc4ccc5n4[B-](F)(F)[N+]4=C(c6ccc[nH]6)C=CC4=C5)cc3)c(CCNC(C)=O)c2n1 [AzomelatoninICO9-2-NB590] |  |  |  |  | NanoBRET Fold Response (OPRM1; 0.1μM tracer): 0.74; NanoBRET Fold Response (OPRM1; 1μM tracer): 0.86; NanoBRET Fold Response (TACR1; 0.1μM tracer): 1.08; NanoBRET Fold Response (TACR1; 1μM tracer): 0.85
9 | O=C(CCOCCOCCOCCOCCNC(=O)CCc1ccc2n1[B-](F)(F)[N+]1=C(c3ccc[nH]3)C=CC1=C2)NCCCN1CCN(C2=Nc3cc(Cl)ccc3Nc3ccccc32)CC1 [Clozapine-a-2-NB590] |  |  |  |  | NanoBRET Fold Response (OPRM1; OPRM1, 0.1μM tracer): 0.98; NanoBRET Fold Response (OPRM1; OPRM1, 1μM tracer): 1.13; NanoBRET Fold Response (TACR1; TACR1, 0.1μM tracer): 1.15; NanoBRET Fold Response (TACR1; TACR1, 1μM tracer): 1.01
10 | CN1CCN(C2=Nc3cc(Cl)ccc3Nc3ccc(CNC(=O)CCOCCOCCOCCOCCNC(=O)CCc4ccc5n4[B-](F)(F)[N+]4=C(c6ccc[nH]6)C=CC4=C5)cc32)CC1 [Clozapine-b-2-NB590] |  |  |  |  | NanoBRET Fold Response (OPRM1; OPRM1, 0.1μM tracer): 0.96; NanoBRET Fold Response (OPRM1; OPRM1, 1μM tracer): 0.86; NanoBRET Fold Response (TACR1; TACR1, 0.1μM tracer): 1.06; NanoBRET Fold Response (TACR1; TACR1, 1μM tracer): 1.08
11 | CN1CCN(C2=Nc3cc(Cl)ccc3N(CC(=O)NCCOCCOCCOCCOCCNC(=O)CCc3ccc4n3[B-](F)(F)[N+]3=C(c5ccc[nH]5)C=CC3=C4)c3ccccc32)CC1 [Clozapine-c-2-NB590] |  |  |  |  | NanoBRET Fold Response (OPRM1; OPRM1, 0.1μM tracer): 0.98; NanoBRET Fold Response (OPRM1; OPRM1, 1μM tracer): 0.94; NanoBRET Fold Response (TACR1; TACR1, 0.1μM tracer): 0.99; NanoBRET Fold Response (TACR1; TACR1, 1μM tracer): 0.96
12 | O=C(CCOCCOCCOCCOCCNC(=O)CCc1ccc2n1[B-](F)(F)[N+]1=C(c3ccc[nH]3)C=CC1=C2)NCCCN1CCN(C2=Nc3ccccc3Oc3ccc(Cl)cc32)CC1 [Loxapine-a-2-NB590] | 1.06 | 1.06 | 1.06 | 1.12 | 
13 | COc1ccccc1N1CCN(CCCCN2C(=O)c3ccc(CNC(=O)CCOCCOCCOCCOCCNC(=O)CCc4ccc5n4[B-](F)(F)[N+]4=C(c6ccc[nH]6)C=CC4=C5)cc3C2=O)CC1 [NAN-190-2-NB590] | 0.96 | 1.10 | 0.98 |  | 
14 | COc1ccccc1N1CCN(CCCCN2C(=O)c3ccc(CNC(=O)CCOCCNC(=O)c4ccc(CNC(=O)CCc5ccc6n5[B-](F)(F)[N+]5=C(c7ccc[nH]7)C=CC5=C6)cc4)cc3C2=O)CC1 [NAN-190-3-NB590] | 1.39 | 0.91 | 1.13 | 1.11 | 
15 | O=C(CCc1ccc2n1[B-](F)(F)[N+]1=C(c3ccc[nH]3)C=CC1=C2)NCc1ccc(C(=O)NCCOCCC(=O)N[C@@H]2CC[C@@]3(O)[C@H]4Cc5ccc(O)c6c5[C@@]3(CCN4CC3CC3)[C@H]2O6)cc1 [Naltrexone-3-NB590] | 1.59 | 1.31 | 1.06 | 0.90 | 
16 | Cc1cc2c(s1)Nc1ccccc1N=C2N1CCN(CCCNC(=O)CCOCCOCCOCCOCCNC(=O)CCc2ccc3n2[B-](F)(F)[N+]2=C(c4ccc[nH]4)C=CC2=C3)CC1 [Olanzapine-a-2-NB590] | 0.96 | 1.08 | 1.04 | 0.92 | 
17 | O=C(CCc1ccc2n1[B-](F)(F)[N+]1=C(c3ccc[nH]3)C=CC1=C2)NCc1ccc(C(=O)NCCOCCOCCNCC(O)COc2cccc3ccccc23)cc1 (centres unmarked) [Propranolol-3-NB590] |  |  |  |  | NanoBRET Fold Response (OPRM1; OPRM1, 0.1μM): 1.02; NanoBRET Fold Response (OPRM1; OPRM1, 1μM): 1.21; NanoBRET Fold Response (TACR1; TACR1, 0.1μM): 0.99; NanoBRET Fold Response (TACR1; TACR1, 1μM): 1.00
18 | O=C(CCc1ccc2n1[B-](F)(F)[N+]1=C(c3ccc[nH]3)C=CC1=C2)NCCOCCOCCNC(=O)OCCOCCN1CCN(C2=Nc3ccccc3Sc3ccccc32)CC1 [Quetiapine-a-2-NB590] | 0.84 | 0.89 | 0.97 | 0.83 | 
19 | Cc1nc2n(c(=O)c1CCN1CCC(c3noc4cc(F)ccc34)CC1)CCCC2OC(=O)NCCOCCOCCOCCOCCNC(=O)CCc1ccc2n1[B-](F)(F)[N+]1=C(c3ccc[nH]3)C=CC1=C2 (centres unmarked) [Risperidone-2-NB590] | 0.92 | 0.96 | 1.10 | 0.95 | 
20 | CC(C)N(CC[C@H](c1ccccc1)c1cc(CCNC(=O)CCOCCOCCOCCOCCNC(=O)CCc2ccc3n2[B-](F)(F)[N+]2=C(c4ccc[nH]4)C=CC2=C3)ccc1O)C(C)C [Tolterodine-2-NB590] | 1.23 | 1.10 | 1.16 | 1.01 | 
21 | CC(C)N(CC[C@H](c1ccccc1)c1cc(CCNC(=O)c2ccc(CNC(=O)CCc3ccc4n3[B-](F)(F)[N+]3=C(c5ccc[nH]5)C=CC3=C4)cc2)ccc1O)C(C)C [Tolterodine-BZ-NB590] | 0.95 | 0.93 | 0.93 | 1.01 | 
22 | CCCn1c(=O)c2[nH]c(-c3ccc(OCC(=O)NCCNC(=O)CCOCCNC(=O)c4ccc(CNC(=O)CCc5ccc6n5[B-](F)(F)[N+]5=C(c7ccc[nH]7)C=CC5=C6)cc4)cc3)nc2n(CCC)c1=O [XAC-3-NB590] | 0.85 | 1.02 |  |  | 
